Laboratory results published in the kinase profiling compilation of Christmann-Franck et al. (2016).
“And” between values parts separate entries of the source, which are not always exact repeats. Equal entries are not always repeated.

How the values were obtained:
Assay in all cases: radiometric filter-binding kinase assay, Kinase HotSpot
Conditions in all cases: compound 0.5 µM; ATP 10 µM
ABL2 (human) = ABL2 (human) (UniProt P42684)
ACVR1 (human) = ACVR1 (human) (UniProt Q04771)
ADRBK1 (human) = ADRBK1 (human) (UniProt P25098)
AKT3 (human) = AKT3 (human) (UniProt Q9Y243)
CAMK1 (human) = CAMK1 (human) (UniProt Q14012)
CAMK1D (human) = CAMK1D (human) (UniProt Q8IU85)
CAMK2B (human) = CAMK2B (human) (UniProt Q13554)
CAMKK2 (human) = CAMKK2 (human) (UniProt Q96RR4)
CDK1 CCNA2 (human) = CDK1 CCNA2 (human) (UniProt P06493+P20248)
CDK2 CCNE1 (human) = CDK2 CCNE1 (human) (UniProt P24941+P24864)
CDK4 CCND1 (human) = CDK4 CCND1 (human) (UniProt P24385+P11802)
CDK4 CCND3 (human) = CDK4 CCND3 (human) (UniProt P30281+P11802)
CDK9 CCNT1 (human) = CDK9 CCNT1 (human) (UniProt P50750+O60563)
CLK2 (human) = CLK2 (human) (UniProt P49760)
CSNK1G3 (human) = CSNK1G3 (human) (UniProt Q9Y6M4)
EGFR (human) = EGFR (human) (UniProt P00533)
EPHA7 (human) = EPHA7 (human) (UniProt Q15375)
GRK6 (human) = GRK6 (human) (UniProt P43250)
GRK7 (human) = GRK7 (human) (UniProt Q8WTQ7)
HIPK4 (human) = HIPK4 (human) (UniProt Q8NE63)
IKBKE (human) = IKBKE (human) (UniProt Q14164)
LIMK1 (human) = LIMK1 (human) (UniProt P53667)
MAP3K14 (human) = MAP3K14 (human) (UniProt Q99558)
MAP4K5 (human) = MAP4K5 (human) (UniProt Q9Y4K4)
MARK1 (human) = MARK1 (human) (UniProt Q9P0L2)
MET (human) = MET (human) (UniProt P08581)
MLTK (human) = MLTK (human) (UniProt Q9NYL2)
MST1R (human) = MST1R (human) (UniProt Q04912)
NEK4 (human) = NEK4 (human) (UniProt P51957)
NEK7 (human) = NEK7 (human) (UniProt Q8TDX7)
NTRK3 (human) = NTRK3 (human) (UniProt Q16288)
PHKG1 (human) = PHKG1 (human) (UniProt Q16816)
PRKCB2 (human) = PRKCB2 (human) (UniProt P05771)
PRKCE (human) = PRKCE (human) (UniProt Q02156)
PRKD1 (human) = PRKD1 (human) (UniProt Q15139)
PRKG1 (human) = PRKG1 (human) (UniProt Q13976)
PTK2 (human) = PTK2 (human) (UniProt Q05397)
STK10 (human) = STK10 (human) (UniProt O94804)
STK11 (human) = STK11 (human) (UniProt Q15831)
STK39 (human) = STK39 (human) (UniProt Q9UEW8)
TGFBR1 (human) = TGFBR1 (human) (UniProt P36897)
TSSK2 (human) = TSSK2 (human) (UniProt Q96PF2)

Chain of PTK2 (human) (Q05397 whole entry, looked up): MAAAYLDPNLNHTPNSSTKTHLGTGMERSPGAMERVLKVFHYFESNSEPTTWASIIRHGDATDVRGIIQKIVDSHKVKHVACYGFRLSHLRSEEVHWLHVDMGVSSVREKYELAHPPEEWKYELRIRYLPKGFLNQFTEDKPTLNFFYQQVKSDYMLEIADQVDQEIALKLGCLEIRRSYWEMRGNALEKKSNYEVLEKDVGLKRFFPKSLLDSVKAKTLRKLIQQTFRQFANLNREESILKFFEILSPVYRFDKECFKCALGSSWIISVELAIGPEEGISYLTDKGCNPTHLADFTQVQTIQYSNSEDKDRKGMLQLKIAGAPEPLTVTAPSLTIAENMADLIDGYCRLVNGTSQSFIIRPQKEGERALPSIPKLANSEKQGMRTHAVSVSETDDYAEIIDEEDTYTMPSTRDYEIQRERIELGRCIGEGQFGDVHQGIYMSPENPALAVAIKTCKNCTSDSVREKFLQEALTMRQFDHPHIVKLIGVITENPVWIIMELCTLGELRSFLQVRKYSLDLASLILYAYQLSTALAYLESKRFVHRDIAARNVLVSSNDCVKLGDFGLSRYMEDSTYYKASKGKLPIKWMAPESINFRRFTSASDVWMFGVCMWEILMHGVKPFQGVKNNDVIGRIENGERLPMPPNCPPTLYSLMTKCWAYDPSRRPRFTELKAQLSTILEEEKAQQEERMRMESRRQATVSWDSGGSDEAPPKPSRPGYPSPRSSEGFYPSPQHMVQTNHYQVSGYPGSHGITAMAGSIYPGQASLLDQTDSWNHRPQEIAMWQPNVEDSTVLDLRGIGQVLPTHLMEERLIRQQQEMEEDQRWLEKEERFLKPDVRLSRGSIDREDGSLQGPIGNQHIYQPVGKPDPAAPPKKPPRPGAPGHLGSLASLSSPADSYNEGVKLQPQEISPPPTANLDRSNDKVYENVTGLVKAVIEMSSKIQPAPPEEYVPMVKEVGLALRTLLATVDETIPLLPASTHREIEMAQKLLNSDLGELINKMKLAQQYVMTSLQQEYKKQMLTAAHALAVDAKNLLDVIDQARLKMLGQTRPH
Chain of GRK6 (human) (P43250 whole entry, looked up): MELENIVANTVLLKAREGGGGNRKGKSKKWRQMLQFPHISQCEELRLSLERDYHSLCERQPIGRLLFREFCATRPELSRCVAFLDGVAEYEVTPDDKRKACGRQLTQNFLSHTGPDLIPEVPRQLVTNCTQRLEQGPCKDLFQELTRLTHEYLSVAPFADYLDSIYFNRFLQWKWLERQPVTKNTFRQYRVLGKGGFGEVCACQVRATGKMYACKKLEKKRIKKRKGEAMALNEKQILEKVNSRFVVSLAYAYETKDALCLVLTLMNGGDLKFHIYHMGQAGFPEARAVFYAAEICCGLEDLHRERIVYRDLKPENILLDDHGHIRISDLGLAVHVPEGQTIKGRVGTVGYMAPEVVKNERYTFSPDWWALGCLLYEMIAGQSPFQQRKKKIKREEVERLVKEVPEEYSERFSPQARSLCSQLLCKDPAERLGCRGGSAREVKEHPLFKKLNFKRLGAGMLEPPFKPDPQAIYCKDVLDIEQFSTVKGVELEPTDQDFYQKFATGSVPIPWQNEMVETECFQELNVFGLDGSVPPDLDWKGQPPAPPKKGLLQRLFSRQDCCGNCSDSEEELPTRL
Chain of CDK9 CCNT1 (human) (O60563 whole entry, looked up): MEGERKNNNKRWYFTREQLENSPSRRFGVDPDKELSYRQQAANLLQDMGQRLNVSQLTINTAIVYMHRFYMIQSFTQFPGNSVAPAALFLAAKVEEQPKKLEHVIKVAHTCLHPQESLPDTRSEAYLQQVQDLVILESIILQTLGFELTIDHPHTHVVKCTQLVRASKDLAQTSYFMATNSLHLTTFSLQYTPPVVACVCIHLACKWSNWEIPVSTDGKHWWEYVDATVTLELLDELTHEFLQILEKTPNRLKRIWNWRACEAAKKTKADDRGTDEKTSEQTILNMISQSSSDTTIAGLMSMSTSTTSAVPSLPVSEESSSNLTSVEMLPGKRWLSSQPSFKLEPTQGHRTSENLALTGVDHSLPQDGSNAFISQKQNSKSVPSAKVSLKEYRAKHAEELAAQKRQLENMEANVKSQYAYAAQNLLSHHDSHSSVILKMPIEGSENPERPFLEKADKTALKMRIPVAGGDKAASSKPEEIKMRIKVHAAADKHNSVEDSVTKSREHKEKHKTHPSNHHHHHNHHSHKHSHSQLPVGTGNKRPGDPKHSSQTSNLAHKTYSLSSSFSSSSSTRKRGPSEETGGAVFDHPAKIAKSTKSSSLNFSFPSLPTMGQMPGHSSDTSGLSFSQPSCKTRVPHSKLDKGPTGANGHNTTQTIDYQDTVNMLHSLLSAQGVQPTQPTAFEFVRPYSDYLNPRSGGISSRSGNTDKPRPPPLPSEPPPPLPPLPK
Chain of CDK9 CCNT1 (human) (P50750 whole entry, looked up): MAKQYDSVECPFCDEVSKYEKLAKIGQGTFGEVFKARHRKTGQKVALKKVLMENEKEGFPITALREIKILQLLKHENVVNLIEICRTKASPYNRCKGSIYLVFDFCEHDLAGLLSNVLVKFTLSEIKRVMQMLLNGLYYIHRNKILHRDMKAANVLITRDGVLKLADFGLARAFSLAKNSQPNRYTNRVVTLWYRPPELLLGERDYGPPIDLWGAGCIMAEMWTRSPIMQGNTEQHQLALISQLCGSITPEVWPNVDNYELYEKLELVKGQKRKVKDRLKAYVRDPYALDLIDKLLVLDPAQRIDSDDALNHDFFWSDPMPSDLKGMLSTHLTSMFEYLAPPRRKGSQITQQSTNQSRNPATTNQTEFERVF
Chain of ABL2 (human) (P42684 whole entry, looked up): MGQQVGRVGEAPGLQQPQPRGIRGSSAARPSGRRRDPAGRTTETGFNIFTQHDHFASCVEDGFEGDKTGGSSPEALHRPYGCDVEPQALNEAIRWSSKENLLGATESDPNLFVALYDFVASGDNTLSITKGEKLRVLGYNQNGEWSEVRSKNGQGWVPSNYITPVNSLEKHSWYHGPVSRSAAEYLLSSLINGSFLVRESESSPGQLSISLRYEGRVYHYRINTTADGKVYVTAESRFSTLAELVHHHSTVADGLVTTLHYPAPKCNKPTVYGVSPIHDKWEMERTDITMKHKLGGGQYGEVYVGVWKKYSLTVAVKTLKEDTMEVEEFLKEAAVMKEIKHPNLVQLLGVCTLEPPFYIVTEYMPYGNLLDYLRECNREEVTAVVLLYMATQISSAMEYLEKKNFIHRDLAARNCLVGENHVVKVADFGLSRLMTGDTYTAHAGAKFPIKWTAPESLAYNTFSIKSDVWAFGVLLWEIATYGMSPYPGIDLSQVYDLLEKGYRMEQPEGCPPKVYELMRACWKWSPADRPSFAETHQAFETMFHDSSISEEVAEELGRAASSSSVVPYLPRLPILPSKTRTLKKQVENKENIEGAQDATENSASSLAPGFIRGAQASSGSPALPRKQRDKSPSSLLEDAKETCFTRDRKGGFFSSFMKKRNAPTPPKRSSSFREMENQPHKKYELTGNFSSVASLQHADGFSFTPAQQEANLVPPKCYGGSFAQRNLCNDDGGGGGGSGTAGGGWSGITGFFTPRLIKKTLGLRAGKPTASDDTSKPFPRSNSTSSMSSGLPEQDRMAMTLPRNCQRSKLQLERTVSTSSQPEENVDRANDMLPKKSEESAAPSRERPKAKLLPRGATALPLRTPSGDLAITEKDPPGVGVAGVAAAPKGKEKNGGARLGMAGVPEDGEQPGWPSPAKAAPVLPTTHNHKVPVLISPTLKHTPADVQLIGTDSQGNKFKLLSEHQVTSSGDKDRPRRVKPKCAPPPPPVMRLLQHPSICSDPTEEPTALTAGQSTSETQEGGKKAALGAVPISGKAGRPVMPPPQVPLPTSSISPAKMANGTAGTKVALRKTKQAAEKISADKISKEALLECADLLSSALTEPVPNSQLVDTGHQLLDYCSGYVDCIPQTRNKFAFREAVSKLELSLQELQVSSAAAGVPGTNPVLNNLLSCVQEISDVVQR
Chain of MAP4K5 (human) (Q9Y4K4 whole entry, looked up): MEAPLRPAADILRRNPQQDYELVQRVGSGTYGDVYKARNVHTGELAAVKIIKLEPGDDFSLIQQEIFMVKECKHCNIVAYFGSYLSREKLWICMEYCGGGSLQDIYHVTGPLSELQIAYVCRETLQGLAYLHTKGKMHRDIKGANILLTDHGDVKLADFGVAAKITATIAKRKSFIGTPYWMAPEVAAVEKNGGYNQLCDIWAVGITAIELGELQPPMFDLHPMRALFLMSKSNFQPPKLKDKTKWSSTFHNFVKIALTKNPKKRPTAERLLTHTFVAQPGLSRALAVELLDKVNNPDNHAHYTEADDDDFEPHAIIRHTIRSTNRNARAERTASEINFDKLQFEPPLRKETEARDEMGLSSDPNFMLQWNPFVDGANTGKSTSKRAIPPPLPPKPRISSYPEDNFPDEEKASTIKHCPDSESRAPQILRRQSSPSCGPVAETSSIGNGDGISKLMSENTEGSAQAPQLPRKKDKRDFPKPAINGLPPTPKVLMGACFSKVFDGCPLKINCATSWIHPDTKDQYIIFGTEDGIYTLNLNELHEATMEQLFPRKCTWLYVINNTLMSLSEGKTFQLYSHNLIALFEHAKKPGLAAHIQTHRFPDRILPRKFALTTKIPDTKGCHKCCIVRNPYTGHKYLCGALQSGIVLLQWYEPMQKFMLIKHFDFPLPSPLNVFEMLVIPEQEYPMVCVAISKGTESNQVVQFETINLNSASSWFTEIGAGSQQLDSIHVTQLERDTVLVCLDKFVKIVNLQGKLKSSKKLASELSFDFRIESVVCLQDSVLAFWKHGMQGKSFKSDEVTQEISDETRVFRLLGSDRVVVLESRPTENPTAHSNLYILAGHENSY
Chain of NEK7 (human) (Q8TDX7 whole entry, looked up): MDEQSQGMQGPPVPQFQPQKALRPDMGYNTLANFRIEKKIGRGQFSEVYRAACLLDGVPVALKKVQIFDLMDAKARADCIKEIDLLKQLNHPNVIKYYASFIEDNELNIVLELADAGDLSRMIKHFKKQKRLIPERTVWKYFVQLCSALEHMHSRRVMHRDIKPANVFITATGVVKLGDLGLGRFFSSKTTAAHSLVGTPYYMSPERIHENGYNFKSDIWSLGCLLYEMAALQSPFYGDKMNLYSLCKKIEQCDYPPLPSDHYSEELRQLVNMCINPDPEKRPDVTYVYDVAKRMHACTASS

CC(=O)O/N=C1\C(=C2\C(=O)Nc3cc(Br)ccc32)Nc2ccccc21
residual activity (ABL2 (human)): 26.4%
residual activity (ACVR1 (human)): 102%
residual activity (ADRBK1 (human)): 108%
residual activity (AKT3 (human)): 95.1%
residual activity (CAMK1 (human)): 102%
residual activity (CAMK1D (human)): 79.1%
residual activity (CAMK2B (human)): 91.5%
residual activity (CAMKK2 (human)): 102%
residual activity (CDK1 CCNA2 (human)): 77.5%
residual activity (CDK2 CCNE1 (human)): 24.7%
residual activity (CDK4 CCND1 (human)): 73.3%
residual activity (CDK4 CCND3 (human)): 86.2%
residual activity (CDK9 CCNT1 (human)): 91.5%
residual activity (CLK2 (human)): 96.8%
residual activity (CSNK1G3 (human)): 101%
residual activity (EGFR (human)): 91.1%
residual activity (EPHA7 (human)): 97.9%
residual activity (GRK6 (human)): 88.5%
residual activity (GRK7 (human)): 99.5%
residual activity (HIPK4 (human)): 95.5%
residual activity (IKBKE (human)): 81.4%
residual activity (LIMK1 (human)): 69.7%
residual activity (MAP3K14 (human)): 75.7%
residual activity (MAP4K5 (human)): 24.1%
residual activity (MARK1 (human)): 76%
residual activity (MET (human)): 98.2%
residual activity (MLTK (human)): 77%
residual activity (MST1R (human)): 92.8%
residual activity (NEK4 (human)): 85.6%
residual activity (NEK7 (human)): 91.9%
residual activity (NTRK3 (human)): 15.1%
residual activity (PHKG1 (human)): 67.7%
residual activity (PRKCB2 (human)): 101%
residual activity (PRKCE (human)): 86.2%
residual activity (PRKD1 (human)): 82.1%
residual activity (PRKG1 (human)): 82.7% and 86.1%
residual activity (PTK2 (human)): 95.9%
residual activity (STK10 (human)): 99.3%
residual activity (STK11 (human)): 73.6%
residual activity (STK39 (human)): 105%
residual activity (TGFBR1 (human)): 101%
residual activity (TSSK2 (human)): 101%

CN(C)C[C@H]1CCn2c(c(C3=C(c4cn(C)c5ccccc45)C(=O)NC3=O)c3ccccc32)C1
residual activity (ABL2 (human)): 96.3%
residual activity (ACVR1 (human)): 93.3%
residual activity (ADRBK1 (human)): 103%
residual activity (AKT3 (human)): 56.3%
residual activity (CAMK1 (human)): 105%
residual activity (CAMK1D (human)): 101%
residual activity (CAMK2B (human)): 96.9%
residual activity (CAMKK2 (human)): 108%
residual activity (CDK1 CCNA2 (human)): 67.8%
residual activity (CDK2 CCNE1 (human)): 64.4%
residual activity (CDK4 CCND1 (human)): 86.9%
residual activity (CDK4 CCND3 (human)): 99.7%
residual activity (CDK9 CCNT1 (human)): 39.6%
residual activity (CLK2 (human)): 85.9%
residual activity (CSNK1G3 (human)): 104%
residual activity (EGFR (human)): 95.8%
residual activity (EPHA7 (human)): 96.9%
residual activity (GRK6 (human)): 66.4%
residual activity (GRK7 (human)): 40%
residual activity (HIPK4 (human)): 95.7%
residual activity (IKBKE (human)): 78.8%
residual activity (LIMK1 (human)): 89.4%
residual activity (MAP3K14 (human)): 105%
residual activity (MAP4K5 (human)): 99.9%
residual activity (MARK1 (human)): 92.8%
residual activity (MET (human)): 96.2%
residual activity (MLTK (human)): 87.3%
residual activity (MST1R (human)): 98.3%
residual activity (NEK4 (human)): 96.7%
residual activity (NEK7 (human)): 100%
residual activity (NTRK3 (human)): 75%
residual activity (PHKG1 (human)): 78.4%
residual activity (PRKCB2 (human)): 2.29%
residual activity (PRKCE (human)): 2.73%
residual activity (PRKD1 (human)): 101%
residual activity (PRKG1 (human)): 81% and 88.8%
residual activity (PTK2 (human)): 95.9%
residual activity (STK10 (human)): 26.6%
residual activity (STK11 (human)): 91.9%
residual activity (STK39 (human)): 102%
residual activity (TGFBR1 (human)): 99.8%
residual activity (TSSK2 (human)): 97.1%

O=C1NC(=O)/C(=C\c2ccc3nccnc3c2)S1
residual activity (ABL2 (human)): 96.8%
residual activity (ACVR1 (human)): 102%
residual activity (ADRBK1 (human)): 93.3%
residual activity (AKT3 (human)): 104%
residual activity (CAMK1 (human)): 95.7%
residual activity (CAMK1D (human)): 102%
residual activity (CAMK2B (human)): 89.3%
residual activity (CAMKK2 (human)): 72.9%
residual activity (CDK1 CCNA2 (human)): 90.7%
residual activity (CDK2 CCNE1 (human)): 91.8%
residual activity (CDK4 CCND1 (human)): 94.4%
residual activity (CDK4 CCND3 (human)): 93.9%
residual activity (CDK9 CCNT1 (human)): 87.7%
residual activity (CLK2 (human)): 74%
residual activity (CSNK1G3 (human)): 79.9%
residual activity (EGFR (human)): 81.6%
residual activity (EPHA7 (human)): 96.7%
residual activity (GRK6 (human)): 97%
residual activity (GRK7 (human)): 99.8%
residual activity (HIPK4 (human)): 95%
residual activity (IKBKE (human)): 99.5%
residual activity (LIMK1 (human)): 87.4%
residual activity (MAP3K14 (human)): 101%
residual activity (MAP4K5 (human)): 85.4%
residual activity (MARK1 (human)): 96.2%
residual activity (MET (human)): 91.2%
residual activity (MLTK (human)): 93.6%
residual activity (MST1R (human)): 97.8%
residual activity (NEK4 (human)): 93.1%
residual activity (NEK7 (human)): 105%
residual activity (NTRK3 (human)): 95.3%
residual activity (PHKG1 (human)): 91.3%
residual activity (PRKCB2 (human)): 103%
residual activity (PRKCE (human)): 101%
residual activity (PRKD1 (human)): 94.8%
residual activity (PRKG1 (human)): 113% and 98.3%
residual activity (PTK2 (human)): 96.5%
residual activity (STK10 (human)): 90.5%
residual activity (STK11 (human)): 96.6%
residual activity (STK39 (human)): 104%
residual activity (TGFBR1 (human)): 98.5%
residual activity (TSSK2 (human)): 88.7%
